Test results as given in PubChem BioAssay (NCI).
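All cell lines were grown in 96-well plates and treated with compound for 48 hours. TGI is the concentration that stops growth completely.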

Assays:
Experiment in all cases: NCI tumour cell line growth inhibition, 48 h
CAKI-1 renal = tested on: CAKI-1 renal
HT29 colon = tested on: HT29 colon
NCI-H226 lung = tested on: NCI-H226 lung
HCT-15 colon = tested on: HCT-15 colon
KM12 colon = tested on: KM12 colon
CCRF-CEM leukemia = tested on: CCRF-CEM leukemia
U251 CNS = tested on: U251 CNS
COLO 205 colon = tested on: COLO 205 colon
UO-31 renal = tested on: UO-31 renal
NCI-H522 lung = tested on: NCI-H522 lung
UACC-62 melanoma = tested on: UACC-62 melanoma
DU-145 prostate = tested on: DU-145 prostate
K-562 leukemia = tested on: K-562 leukemia
HL-60(TB) leukemia = tested on: HL-60(TB) leukemia
EKVX NSCLC = tested on: EKVX NSCLC
SN12C renal = tested on: SN12C renal
SF-295 CNS = tested on: SF-295 CNS
PC-3 prostate = tested on: PC-3 prostate
OVCAR-4 ovarian = tested on: OVCAR-4 ovarian
NCI/ADR-RES ovarian = tested on: NCI/ADR-RES ovarian
UACC-257 melanoma = tested on: UACC-257 melanoma
TK-10 renal = tested on: TK-10 renal
SW-620 colon = tested on: SW-620 colon
SK-MEL-2 melanoma = tested on: SK-MEL-2 melanoma
SK-OV-3 ovarian = tested on: SK-OV-3 ovarian
MDA-N = tested on: MDA-N
RXF 393 renal = tested on: RXF 393 renal
OVCAR-8 ovarian = tested on: OVCAR-8 ovarian
HS 578T breast = tested on: HS 578T breast
HCT-116 colon = tested on: HCT-116 colon
786-0 renal = tested on: 786-0 renal
LOX IMVI melanoma = tested on: LOX IMVI melanoma
NCI-H460 lung = tested on: NCI-H460 lung
IGROV1 ovarian = tested on: IGROV1 ovarian
ACHN renal = tested on: ACHN renal
MDA-MB-231 breast = tested on: MDA-MB-231 breast
M14 melanoma = tested on: M14 melanoma
NCI-H23 lung = tested on: NCI-H23 lung
HCC-2998 colon = tested on: HCC-2998 colon
T-47D breast = tested on: T-47D breast
MDA-MB-435 = tested on: MDA-MB-435
BT-549 breast = tested on: BT-549 breast
MOLT-4 leukemia = tested on: MOLT-4 leukemia
SF-539 CNS = tested on: SF-539 CNS
HOP-62 NSCLC = tested on: HOP-62 NSCLC
OVCAR-3 ovarian = tested on: OVCAR-3 ovarian
SK-MEL-28 melanoma = tested on: SK-MEL-28 melanoma
SF-268 CNS = tested on: SF-268 CNS
RPMI-8226 leukemia = tested on: RPMI-8226 leukemia
A549 NSCLC = tested on: A549 NSCLC
SK-MEL-5 melanoma = tested on: SK-MEL-5 melanoma
MCF7 breast = tested on: MCF7 breast
OVCAR-5 ovarian = tested on: OVCAR-5 ovarian
SNB-19 CNS = tested on: SNB-19 CNS
SR leukemia = tested on: SR leukemia
SNB-75 CNS = tested on: SNB-75 CNS
HOP-92 NSCLC = tested on: HOP-92 NSCLC

Work on Cc1csc2n(C)c(=O)c3ccccc3[n+]12 yielded a TGI (CAKI-1 renal) greater than 100 µM, a TGI (HT29 colon) greater than 100 µM and a TGI (NCI-H226 lung) greater than 100 µM. The TGI (HCT-15 colon) was greater than 100 µM, the TGI (KM12 colon) was greater than 100 µM and the TGI (CCRF-CEM leukemia) was greater than 100 µM. For the same molecule, the TGI (U251 CNS) was greater than 100 µM, the TGI (COLO 205 colon) was greater than 100 µM and the TGI (UO-31 renal) was greater than 100 µM. For the same molecule, the TGI (NCI-H522 lung) was greater than 100 µM, the TGI (UACC-62 melanoma) was greater than 100 µM and the TGI (DU-145 prostate) was greater than 100 µM. For the same molecule, the TGI (K-562 leukemia) was greater than 100 µM, the TGI (HL-60(TB) leukemia) was greater than 100 µM and the TGI (EKVX NSCLC) was greater than 100 µM. For the same molecule, the TGI (SN12C renal) was greater than 100 µM, the TGI (SF-295 CNS) was greater than 100 µM and the TGI (PC-3 prostate) was greater than 100 µM. The TGI (OVCAR-4 ovarian) was greater than 100 µM, the TGI (NCI/ADR-RES ovarian) was greater than 100 µM and the TGI (UACC-257 melanoma) was greater than 100 µM. It also gave a TGI (TK-10 renal) greater than 100 µM, a TGI (SW-620 colon) greater than 100 µM and a TGI (SK-MEL-2 melanoma) greater than 100 µM. It also gave a TGI (SK-OV-3 ovarian) greater than 100 µM, a TGI (MDA-N) greater than 100 µM and a TGI (RXF 393 renal) greater than 100 µM. For the same molecule, the TGI (OVCAR-8 ovarian) was greater than 100 µM, the TGI (HS 578T breast) was greater than 100 µM and the TGI (HCT-116 colon) was greater than 100 µM. The TGI (786-0 renal) was greater than 100 µM, the TGI (LOX IMVI melanoma) was greater than 100 µM and the TGI (NCI-H460 lung) was greater than 100 µM. The TGI (IGROV1 ovarian) was greater than 100 µM, the TGI (ACHN renal) was greater than 100 µM and the TGI (MDA-MB-231 breast) was greater than 100 µM. The TGI (M14 melanoma) was greater than 100 µM, the TGI (NCI-H23 lung) was greater than 100 µM and the TGI (HCC-2998 colon) was greater than 100 µM. The TGI (T-47D breast) was greater than 100 µM, the TGI (MDA-MB-435) was greater than 100 µM and the TGI (BT-549 breast) was greater than 100 µM. The TGI (MOLT-4 leukemia) was greater than 100 µM, the TGI (SF-539 CNS) was greater than 100 µM and the TGI (HOP-62 NSCLC) was greater than 100 µM. The TGI (OVCAR-3 ovarian) was greater than 100 µM, the TGI (SK-MEL-28 melanoma) was greater than 100 µM and the TGI (SF-268 CNS) was greater than 100 µM. It also gave a TGI (RPMI-8226 leukemia) greater than 100 µM, a TGI (A549 NSCLC) greater than 100 µM and a TGI (SK-MEL-5 melanoma) greater than 100 µM. For the same molecule, the TGI (MCF7 breast) was greater than 100 µM, the TGI (OVCAR-5 ovarian) was greater than 100 µM and the TGI (SNB-19 CNS) was greater than 100 µM. It also gave a TGI (SR leukemia) greater than 100 µM.
Cc1nn(C(=O)c2ccc(Cl)cc2)c2c1C(c1ccco1)SC(N)=N2 (stereo unspecified) gave a TGI (CAKI-1 renal) greater than 10 µM, a TGI (HT29 colon) greater than 10 µM and a TGI (NCI-H226 lung) greater than 10 µM. It also gave a TGI (HCT-15 colon) greater than 10 µM, a TGI (KM12 colon) greater than 10 µM and a TGI (CCRF-CEM leukemia) greater than 10 µM. For the same molecule, the TGI (U251 CNS) was greater than 10 µM, the TGI (COLO 205 colon) was greater than 10 µM and the TGI (NCI-H522 lung) was greater than 10 µM. The TGI (SNB-75 CNS) was greater than 10 µM, the TGI (UACC-62 melanoma) was greater than 10 µM and the TGI (DU-145 prostate) was greater than 10 µM. The TGI (K-562 leukemia) was greater than 10 µM, the TGI (HL-60(TB) leukemia) was greater than 10 µM and the TGI (EKVX NSCLC) was greater than 10 µM. For the same molecule, the TGI (SN12C renal) was greater than 10 µM, the TGI (SF-295 CNS) was greater than 10 µM and the TGI (PC-3 prostate) was greater than 10 µM. For the same molecule, the TGI (OVCAR-4 ovarian) was greater than 10 µM, the TGI (NCI/ADR-RES ovarian) was greater than 10 µM and the TGI (UACC-257 melanoma) was greater than 10 µM. It also gave a TGI (TK-10 renal) greater than 10 µM, a TGI (SW-620 colon) greater than 10 µM and a TGI (SK-MEL-2 melanoma) greater than 10 µM. For the same molecule, the TGI (SK-OV-3 ovarian) was greater than 10 µM, the TGI (MDA-N) was greater than 10 µM and the TGI (RXF 393 renal) was greater than 10 µM. It also gave a TGI (OVCAR-8 ovarian) greater than 10 µM, a TGI (HS 578T breast) greater than 10 µM and a TGI (HCT-116 colon) greater than 10 µM. The TGI (786-0 renal) was greater than 10 µM, the TGI (LOX IMVI melanoma) was greater than 10 µM and the TGI (NCI-H460 lung) was greater than 10 µM. For the same molecule, the TGI (IGROV1 ovarian) was greater than 10 µM, the TGI (ACHN renal) was greater than 10 µM and the TGI (HOP-92 NSCLC) was greater than 10 µM. It also gave a TGI (MDA-MB-231 breast) greater than 10 µM, a TGI (M14 melanoma) greater than 10 µM and a TGI (NCI-H23 lung) greater than 10 µM. It also gave a TGI (HCC-2998 colon) greater than 10 µM, a TGI (T-47D breast) greater than 10 µM and a TGI (MDA-MB-435) greater than 10 µM. The TGI (BT-549 breast) was greater than 10 µM, the TGI (MOLT-4 leukemia) was greater than 10 µM and the TGI (SF-539 CNS) was greater than 10 µM. It also gave a TGI (HOP-62 NSCLC) greater than 10 µM, a TGI (OVCAR-3 ovarian) greater than 10 µM and a TGI (SK-MEL-28 melanoma) greater than 10 µM. It also gave a TGI (SF-268 CNS) greater than 10 µM, a TGI (RPMI-8226 leukemia) greater than 10 µM and a TGI (A549 NSCLC) greater than 10 µM. It also gave a TGI (SK-MEL-5 melanoma) greater than 10 µM, a TGI (MCF7 breast) greater than 10 µM and a TGI (OVCAR-5 ovarian) greater than 10 µM. For the same molecule, the TGI (SNB-19 CNS) was greater than 10 µM and the TGI (SR leukemia) was greater than 10 µM.
